pIC50: −log10 of the molar value.
target: PHGDH (Homo sapiens (Human), UniProt O43175); assay: PHGDH inhibition, coupled assay with PSAT1/PSPH and diaphorase/resazurin readout; type: biochemical; conditions: Table E9; mixture with PSAT1, PSPH; diaphorase/resazurin reporter
Sequence (O43175 whole entry): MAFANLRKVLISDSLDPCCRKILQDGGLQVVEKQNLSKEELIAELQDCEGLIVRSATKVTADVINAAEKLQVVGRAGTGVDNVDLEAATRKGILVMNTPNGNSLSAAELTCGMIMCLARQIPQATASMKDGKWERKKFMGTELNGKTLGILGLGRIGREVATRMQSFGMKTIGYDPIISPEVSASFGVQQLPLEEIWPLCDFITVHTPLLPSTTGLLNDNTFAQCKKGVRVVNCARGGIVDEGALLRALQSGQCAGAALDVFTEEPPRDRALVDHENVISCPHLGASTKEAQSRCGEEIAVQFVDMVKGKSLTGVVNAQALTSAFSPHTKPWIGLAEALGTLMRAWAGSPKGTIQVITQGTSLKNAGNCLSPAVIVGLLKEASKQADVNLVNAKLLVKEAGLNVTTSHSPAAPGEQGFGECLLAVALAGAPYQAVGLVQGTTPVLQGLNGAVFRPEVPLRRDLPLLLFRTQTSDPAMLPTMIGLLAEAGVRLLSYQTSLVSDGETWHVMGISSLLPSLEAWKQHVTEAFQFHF
Method: Compounds of the invention were assayed for inhibition of the activity phosphoglycerate dehydrogenase (PHGDH). The compounds were assayed in a mixture comprising PHGDH, PSAT1, PSPH, NADH, and glutamate. Diaphorase and resazurin were used as a fluorescent reporter system.
In this endogenous pathway coupled assay, the production of NADH by PHGDH was measured through the diaphorasemediated reduction of resazurin (See, e.g., Chakraborty, S., Sakka, M., Kimura, T. & Sakka, K. “Characterization of a dihydrolipoyl dehydrogenase having diaphorase activity of Clostridium kluyveri.” BioscL Biotechnol. Biochem. 72, 982-988 (2008)).
PHGDH assay buffer contained 50 mM TEA pH 8.0, 10 mM MgCl2, 0.05% BSA, and 0.01% Tween-20. PHGDH enzyme buffer consisted of assay buffer with 20 nM PHGDH and 0.2 mg/mL diaphorase. PHGDH substrate buffer contained 0.3 mM NAD 1.25 mM glutamate, 0.1 mM 3-phosphoglycerate, 0.2 mM resazurin, 1 μM PSAT1, and 1 μM PSPH. qHTS was performed in 1536-well plates dispensed with a BioRAPTR FRD. Each well contained equal volumes of substrate buffer and assay buffer. Plates were read at 0 minutes and 20 minutes at room temperature with a ViewLux uHTS Microplate Imager (PerkinElmer). Follow-up assays were performed in black 384-well plates (Greiner) in 20 μL of enzyme buffer to which compounds were added in dose-response with an HP D300 digital dispenser (Hewlett-Packard), followed by addition of 20 μL of substrate buffer. Plates were incubated at room temperature (25° C.) and read at 0 and 20 minutes with a Spectramax M5 plate reader (Molecular Devices) in fluorescence intensity mode with a λex=550 nm and λem=600 nm (emission cutoff=590 nm).

Compared with Cc1cc(C)nc(NC(=S)N2CCN(C(=O)c3cccc(C(F)(F)F)c3)CC2)c1 [Compound 261], Cc1cc(C)nc(NC(=S)N2CCN(C(=O)c3ccc(C(F)(F)F)cc3)CC2)c1 [Compound 265] is higher in pIC50: 5.00 to 5.30 for the first, greater than 5.30 for the second. The second is the more potent here.

Compared with Cc1cc(C)nc(NC(=S)N2CCN(c3cccc4ccccc34)CC2)c1 [Compound 69], Cc1cc(C)nc(NC(=S)N2CCN(c3cncc4ccccc34)CC2)c1 [Compound 146] is lower in pIC50: 5.00 to 5.30 for the first, 4.70 to 5.00 for the second.

First: Cc1cc(C)nc(NC(=S)N2CCN(c3cc(Cl)cc(C(F)(F)F)c3)CC2)c1 [Compound 137]
Second: Cc1cc(C)nc(NC(=S)N2CCN(c3cccc(C(F)(F)F)c3)CC2)c1 [Compound 24]
The pIC50 of the first is lower: 4.70 to 5.00 for the first, 5.00 to 5.30 for the second.

Cc1cc(C)nc(NC(=S)N2CCN(c3cncs3)CC2)c1 [Compound 157] and Cc1cc(C)nc(NC(=S)N2CCN(c3cnccn3)CC2)c1 [Compound 118] cannot be ordered by pIC50: no more than 4.70 for the first, no more than 4.70 for the second.

Compared with Cc1cc(C)nc(NC(=S)N2CCN(c3cc(Cl)c(Cl)cc3Cl)CC2)c1 [Compound 220], Cc1cc(C)nc(NC(=S)N2CCN(c3ccc(Cl)cc3Cl)CC2)c1 [Compound 68] is higher in pIC50: no more than 4.70 for the first, 5.00 to 5.30 for the second. The second is the more potent here.

Cc1cc(C)nc(NC(=S)N2CC3CN(c4ncc(C(F)(F)F)cc4Cl)CC3C2)c1 (centres unmarked) [Compound 225] and Cc1ccnc(NC(=S)N2CC3CN(c4ncc(C(F)(F)F)cc4Cl)CC3C2)c1 (centres unmarked) [Compound 227] fall in the same range of pIC50: 4.70 to 5.00 for the first, 4.70 to 5.00 for the second.

First: FC(F)(F)c1cccc(N2CCN(C(=S)Nc3nc[nH]n3)CC2)c1 [Compound 233]
Second: Cc1ccnc(NC(=S)N2CCN(c3cccc(C(F)(F)F)c3)CC2)n1 [Compound 126]
The pIC50 of the first is higher: 5.00 to 5.30 for the first, 4.70 to 5.00 for the second. The first is the more potent here.

First: Cc1cc(C)nc(NC(=S)N2CCN(c3ncc(C(F)(F)F)cc3Cl)CC2)c1 [Compound 111]
Second: Cc1cc(C)nc(NC(=S)N2CCN(c3cc(C(F)(F)F)nc(C)n3)CC2)c1 [Compound 153]
The pIC50 of the first is higher: 5.00 to 5.30 for the first, 4.70 to 5.00 for the second. The first is the more potent here.

Cc1ccnc(NC(=S)N2CCCc3ccc(C(F)(F)F)cc32)c1 [Compound 60] and Cc1ccnc(NC(=S)N2CCN(c3cccc(C(F)(F)F)c3)C2)c1 [Compound 44] cannot be ordered by pIC50: no more than 4.70 for the first, no more than 4.70 for the second.

Cc1cc(C)nc(NC(=S)N2CCN(CC3CC3)CC2)c1 [Compound 301] and Cc1cc(C)nc(NC(=S)N2CCN(Cc3ccccc3Cl)CC2)c1 [Compound 289] cannot be ordered by pIC50: no more than 4.70 for the first, 4.70 to 5.00 for the second.

First: Cc1cc(C)nc(NC(=S)N2CCN(c3nccc4ccccc34)CC2)c1 [Compound 132]
Second: Cc1cc(C)nc(NC(=S)N2CCN(c3ccc4ccccc4c3)CC2)c1 [Compound 70]
The pIC50 of the first is lower: 4.70 to 5.00 for the first, 5.00 to 5.30 for the second. The second is the more potent here.

Cc1ccnc(NC(=S)N2CCN(c3ccc(N)cc3)CC2)c1 [Compound 17] and Cc1ccnc(NC(=S)N2CCN(c3ccc(F)cc3)CC2)c1 [Compound 7] cannot be ordered by pIC50: no more than 4.70 for the first, no more than 4.70 for the second.

First: Cc1cc(C)nc(NC(=S)N2CCCC(NC(=O)c3cccc(C(F)(F)F)c3)C2)c1 (centres unmarked) [Compound 262, N-(1-((4,6-dimethylpyridin-2-yl)carbamothioyl)piperidin-3-yl)-3-(trifluoromethyl)benzamide]
Second: Cc1ccnc(NC(=S)N2CCCC(Nc3cccc(C(F)(F)F)c3)C2)c1 (centres unmarked) [Compound 58]
The pIC50 of the first is higher: greater than 5.30 for the first, 5.00 to 5.30 for the second. The first is the more potent here.

First: FC(F)(F)c1cccc(N2CCN(C(=S)Nc3nccc4ccccc34)CC2)c1 [Compound 32]
Second: FC(F)(F)c1cccc(N2CCN(C(=S)Nc3ccc4ccccc4n3)CC2)c1 [Compound 34]
The pIC50 of the first is higher: 5.00 to 5.30 for the first, 4.70 to 5.00 for the second.

Cc1cc(C)nc(NC(=S)N2CCC(Nc3ccc(C(F)(F)F)cc3)CC2)c1 [Compound 258] and Cc1cc(C)nc(NC(=S)N2CCN(Cc3ccc(OC(F)(F)F)cc3)CC2)c1 [Compound 296] cannot be ordered by pIC50: greater than 5.30 for the first, greater than 5.30 for the second.

Cc1ccnc(NC(=S)N2CC[C@@H](Nc3cccc(C(F)(F)F)c3)C2)c1 [Compound 55] and Cc1ccnc(NC(=S)N[C@H]2CCN(c3cccc(C(F)(F)F)c3)C2)c1 [Compound 43] cannot be ordered by pIC50: no more than 4.70 for the first, no more than 4.70 for the second.

Cc1cc2nc(NC(=S)N3CCN(c4cccc(C(F)(F)F)c4)CC3)[nH]c2cc1C [Compound 241] and Cc1ccc2nc(NC(=S)N3CCN(c4cccc(C(F)(F)F)c4)CC3)[nH]c2c1 [Compound 239] cannot be ordered by pIC50: no more than 4.70 for the first, 4.70 to 5.00 for the second.

Cc1cc(C)nc(NC(=S)N2CCN(c3cccc(C#N)c3)CC2)c1 [Compound 66] and Cc1cc(C)nc(NC(=S)N2CCN(c3cccc([S+](C)[O-])c3)CC2)c1 (centres unmarked) [Compound 139] cannot be ordered by pIC50: 4.70 to 5.00 for the first, no more than 4.70 for the second.

First: Cc1cccc2nc(NC(=S)N3CCN(c4cccc(C(F)(F)F)c4)CC3)[nH]c12 [Compound 247]
Second: Cc1cncc(NC(=S)N2CCN(c3cccc(C(F)(F)F)c3)CC2)c1 [Compound 29]
The pIC50 of the first is higher: greater than 5.30 for the first, 5.00 to 5.30 for the second. The first is the more potent here.

Cc1cc(C)nc(NC(=S)N2CCN(Cc3ccc(C(F)(F)F)c(Cl)c3)CC2)c1 [Compound 300] and Cc1cc(C)nc(NC(=S)N2CCN(Cc3ccc(C)c(C(F)(F)F)c3)CC2)c1 [Compound 302] fall in the same range of pIC50: 5.00 to 5.30 for the first, 5.00 to 5.30 for the second.

Compared with Cc1cc(C)nc(NC(=S)N2CCN(c3ccc(Cl)cc3[N+](=O)[O-])CC2)c1 [Compound 218], Cc1cc(C)nc(NC(=S)N2CCN(c3ccc([N+](=O)[O-])c4cccnc34)CC2)c1 [Compound 123] is lower in pIC50: 5.00 to 5.30 for the first, no more than 4.70 for the second.

Cc1cc(C)nc(NC(=S)N2CCN(c3ccc(N4CCCC4)nn3)CC2)c1 [Compound 84] and Cc1cc(C)nc(NC(=S)N2CCN(c3ccc(N[S+](C)(=O)[O-])nn3)CC2)c1 [Compound 83] cannot be ordered by pIC50: no more than 4.70 for the first, no more than 4.70 for the second.

CSC(Cc1ccc(Cl)cc1)C(=O)Nc1ccc(Cl)cc1C(=O)O (centres unmarked) [Compound 19] and COc1ccccc1N[S+](=O)([O-])c1cc(NC(=O)Cc2ccc(Cl)cc2Cl)ccc1N1CCCC1 [Compound 248] cannot be ordered by pIC50: no more than 4.70 for the first, no more than 4.70 for the second.

First: Cc1ccnc(NC(=S)NCCN(C)c2cccc(C(F)(F)F)c2)c1 [Compound 21]
Second: Cc1ccnc(NC(=S)NC2CCCN(c3cccc(C(F)(F)F)c3)C2)c1 (centres unmarked) [Compound 54]
The pIC50 of the first is lower: no more than 4.70 for the first, 5.00 to 5.30 for the second.

First: COc1cccc(NC(=S)N2CCN(c3ccc(Cl)cc3Cl)CC2)n1 [Compound 190]
Second: COc1cccc(NC(=S)N2CCN(c3cc(Cl)cc(Cl)c3)CC2)n1 [Compound 187]
The pIC50 of the first is higher: greater than 5.30 for the first, no more than 4.70 for the second. The first is the more potent here.

Compared with FC(F)(F)c1cc(N2CCN(C(=S)Nc3cc(Cl)ccn3)CC2)cc(C(F)(F)F)c1 [Compound 198], Cc1ccnc(NC(=S)N2CCN(c3cc(C(F)(F)F)cc(C(F)(F)F)c3)CC2)c1 [Compound 170] is higher in pIC50: no more than 4.70 for the first, 5.00 to 5.30 for the second.

COc1ccc(CN2CCN(C(=S)Nc3cc(C)cc(C)n3)CC2)cc1 [Compound 293] and COc1cccc(CN2CCN(C(=S)Nc3cc(C)cc(C)n3)CC2)c1 [Compound 290] fall in the same range of pIC50: 4.70 to 5.00 for the first, 4.70 to 5.00 for the second.

Cc1cc(C)nc(NC(=S)N2CCN(c3ccc4nccn4c3)CC2)c1 [Compound 162] and Cc1cc(C)nc(NC(=S)N2CCN(c3ccc(Cl)c(Cl)c3)CC2)c1 [Compound 92] cannot be ordered by pIC50: no more than 4.70 for the first, no more than 4.70 for the second.

Cc1ccnc(NC(=S)N2CCN(C)CC2)c1 [Compound 16] and Cc1ccc(N2CCN(C(=S)Nc3cc(C)ccn3)CC2)cc1 [Compound 11] cannot be ordered by pIC50: no more than 4.70 for the first, no more than 4.70 for the second.

First: Cc1cc(C)nc(NC(=S)N2CCN(c3ccc4cnccc4c3)CC2)c1 [Compound 148]
Second: Cc1cc(C)nc(NC(=S)N2CCN(c3ccc(F)c(F)c3)CC2)c1 [Compound 214]
The pIC50 of the first is lower: 4.70 to 5.00 for the first, 5.00 to 5.30 for the second.

First: Cc1cc(C)nc(NC(=S)N2CCN(c3cccc(OC(F)(F)F)c3)CC2)c1 [Compound 134]
Second: Cc1cc(C)nc(N/C(=N/C#N)N2CCN(c3cccc(C(F)(F)F)c3)CC2)c1 [Compound 95]
The pIC50 of the first is higher: 5.00 to 5.30 for the first, no more than 4.70 for the second. The first is the more potent here.

O=C(Nc1cccc([S+](=O)([O-])Nc2ccccc2F)c1)c1cccs1 [Compound 245] and Cc1cc(C)nc(NC(=S)N2CCN(c3ccc(-c4ccccc4)cc3)CC2)c1 [Compound 133] cannot be ordered by pIC50: no more than 4.70 for the first, no more than 4.70 for the second.

Cc1ccnc(NC(=O)N2CCN(c3cccc(C(F)(F)F)c3)CC2)c1 [Compound 3] and Cc1ccnc(C(=S)N2CCN(c3cccc(C(F)(F)F)c3)CC2)c1 [Compound 62] cannot be ordered by pIC50: no more than 4.70 for the first, no more than 4.70 for the second.

First: COc1cccc(NC(=S)N2CCN(c3ccccc3C(F)(F)F)CC2)n1 [Compound 193]
Second: COc1cccc(NC(=S)N2CCN(c3cccc(C(F)(F)F)n3)CC2)n1 [Compound 194]
The pIC50 of the first is higher: greater than 5.30 for the first, 5.00 to 5.30 for the second.

Cc1cc(C)nc(NC(=S)N2CCN(c3ccc4ncccc4c3[N+](=O)[O-])CC2)c1 [Compound 124] and Cc1cc(C)nc(NC(=S)N2CCN(c3ncccc3C#N)CC2)c1 [Compound 121] cannot be ordered by pIC50: 4.70 to 5.00 for the first, no more than 4.70 for the second.

COc1ccnc(NC(=S)N2CCN(c3ccc4ccccc4n3)CC2)c1 [Compound 186] and Cc1ccnc(NC(=S)N2CCN(c3ccc4ccccc4n3)CC2)c1 [Compound 177] fall in the same range of pIC50: 4.70 to 5.00 for the first, 4.70 to 5.00 for the second.

Compared with Cc1cc(C)nc(NC(=S)N2CCN([S+](=O)([O-])c3cccc(C(F)(F)F)c3)CC2)c1 [Compound 100], Cc1cc(C)nc(NC(=S)N2CCN(c3ccc(C(F)(F)F)cc3C(F)(F)F)CC2)c1 [Compound 209] is lower in pIC50: greater than 5.30 for the first, 5.00 to 5.30 for the second.

Compared with CC(=O)c1ccc(N2CCN(C(=S)Nc3cc(C)ccn3)CC2)cc1 [Compound 14], Cc1ccnc(NC(=S)N2CCN(c3cc(F)cc(Cl)c3)CC2)c1 [Compound 141] is higher in pIC50: no more than 4.70 for the first, greater than 5.30 for the second.

First: S=C(Nc1cc(Cl)ccn1)N1CCN(c2cccc(Cl)c2Cl)CC1 [Compound 226]
Second: COc1ccnc(NC(=S)N2CCN(c3cccc(Cl)c3Cl)CC2)c1 [Compound 180]
The pIC50 of the first is lower: 4.70 to 5.00 for the first, 5.00 to 5.30 for the second.

CN(C)c1ccc2nc(NC(=S)N3CCN(c4cccc(C(F)(F)F)c4)CC3)sc2c1 [Compound 144] and O=[N+]([O-])c1cc(C(F)(F)F)ccc1N1CCN(C(=S)Nc2cc(Cl)ccn2)CC1 [Compound 201] cannot be ordered by pIC50: no more than 4.70 for the first, 4.70 to 5.00 for the second.

Going from Cc1cc(C)nc(NC(=S)N2CCC(Cc3ccccc3)CC2)c1 [Compound 254] to Cc1cc(C)nc(NC(=S)N2CCN(Cc3cccc4ccccc34)CC2)c1 [Compound 168], the pIC50 falls from greater than 5.30 to no more than 4.70.

First: Cc1cc(C)nc(NC(=S)N2CCN(c3cc(C(F)(F)F)nc4ccc(C(F)(F)F)cc34)CC2)c1 [Compound 158]
Second: Cc1cc(C)nc(NC(=S)N2CCN(c3cc(C(F)(F)F)nc4ccccc34)CC2)c1 [Compound 122]
The pIC50 of the first is lower: 5.00 to 5.30 for the first, greater than 5.30 for the second.

Cc1ccnc(NC(=S)N2CCc3ccccc3C2)c1 [Compound 51] and Cc1cc(C)nc(NC(=S)N2CCN(c3ncnc4sccc34)CC2)c1 [Compound 120] cannot be ordered by pIC50: no more than 4.70 for the first, no more than 4.70 for the second.
